Source: patent US12138256B2, “Treatment of cardiopulmonary disorders” (Bayer Aktiengesellschaft, priority 2021, dated 2024)

Test system: total specific airway resistance (sRaw)
Assay: Phase I, healthy male subjects, 7 days inhalation: total specific airway resistance sRaw by bodyplethysmography (C-4.1)
Format: in vivo, human
Method: Healthy White male subjects, aged 18 to 45 years and with a body mass index (BMI) above/equal 18.5 and below/equal 29.9 kg/m2 were treated in a clinical pharmacological phase I study on seven days with inhaled once daily doses of 480 μg or 1000 μg or 2000 μg (2 capsules of 1000 μg) (nominal dose) of dry powder formulations of example 2 or Placebo. The subjects inhaled the drug powder from capsules (see under D-1, e.g. tables 22 and 23) inserted into a handheld inhalation device by one deep inhalative breath. The dry powder formulation of the drug is dispersed into the airstream and fine particles are transported into the deep parts of the lung where it is intended to cause a vasodilation of the blood vessels in PH patients for a substantial reduction of increased blood pressure in the central pulmonary blood vessels in PAH patients or other subtypes of PH. This effect cannot be shown in subjects with healthy lungs. In addition inhaled drug causes a dilation of the bronchial airways and thus also improves disease states of lung diseases in PH patients with pathological bronchoconstriction. This effect was measured via bodyplethysmography as reduction of Specific Airway Resistance in healthy subjects. After the deep inhalative breath the subjects hold breath for 2 seconds, so that the dry powder drug condenses from the airstream onto the surface of the deeper lung areas where it is deposited close to its site of intended pharmacological action. The drug dissolutes over the day and equilibrates the lung via lining fluid.

O=C(O)c1ccc(CCN(CCc2ccccc2OCc2ccc(-c3ccc(C(F)(F)F)cc3)cc2Cl)[C@H]2CCCc3nc(C(=O)O)ccc32)cc1 [example 2, (5S)-{[2-(4-Carboxyphenyl)ethyl][2-(2-{[3-chloro-4′-(trifluoromethyl)biphenyl-4-yl]methoxy}phenyl)-ethyl]amino}-5,6,7,8-tetrahydroquinoline-2-carboxylic acid]
total specific airway resistance, mean ± SD (480 μg, 0 D 00 H 00 M): 1.078 ± 0.375 kPa/sec
total specific airway resistance, mean ± SD (480 μg, 0 D 02 H 00 M): 0.839 ± 0.182 kPa/sec
total specific airway resistance, mean ± SD (480 μg, 0 D 06 H 00 M): 0.800 ± 0.187 kPa/sec
total specific airway resistance, mean ± SD (480 μg, 2 D 02 H 00 M): 0.883 ± 0.310 kPa/sec
total specific airway resistance, mean ± SD (480 μg, 4 D 02 H 00 M): 0.807 ± 0.200 kPa/sec
total specific airway resistance, mean ± SD (480 μg, 6 D 04 H 00 M): 0.798 ± 0.193 kPa/sec
total specific airway resistance, mean ± SD (480 μg, 7 D 00 H 00 M): 0.823 ± 0.274 kPa/sec
total specific airway resistance, mean ± SD (480 μg, 7 D 02 H 00 M): 0.777 ± 0.282 kPa/sec
total specific airway resistance, mean ± SD (480 μg, 7 D 06 H 00 M): 0.803 ± 0.280 kPa/sec
total specific airway resistance, mean ± SD (480 μg, SCREENING): 0.844 ± 0.327 kPa/sec
total specific airway resistance, mean ± SD (480 μg, SCREENING 2): 0.832 ± 0.280 kPa/sec
total specific airway resistance, mean ± SD (480 μg, −0 D 18 H 00 M (pretreatment day)): 0.921 ± 0.305 kPa/sec
total specific airway resistance, mean ± SD (480 μg, −0 D 22 H 00 M (pretreatment day)): 0.928 ± 0.392 kPa/sec
total specific airway resistance, mean ± SD (480 μg, −1 D 00 H 00 M (pretreatment day)): 0.939 ± 0.344 kPa/sec
total specific airway resistance, mean ± SD (1000 μg, 0 D 00 H 00 M): 0.967 ± 0.233 kPa/sec
total specific airway resistance, mean ± SD (1000 μg, 0 D 02 H 00 M): 0.859 ± 0.143 kPa/sec
total specific airway resistance, mean ± SD (1000 μg, 0 D 06 H 00 M): 0.824 ± 0.180 kPa/sec
total specific airway resistance, mean ± SD (1000 μg, 2 D 02 H 00 M): 0.797 ± 0.141 kPa/sec
total specific airway resistance, mean ± SD (1000 μg, 4 D 02 H 00 M): 0.853 ± 0.172 kPa/sec
total specific airway resistance, mean ± SD (1000 μg, 6 D 04 H 00 M): 0.787 ± 0.168 kPa/sec
total specific airway resistance, mean ± SD (1000 μg, 7 D 00 H 00 M): 0.917 ± 0.227 kPa/sec
total specific airway resistance, mean ± SD (1000 μg, 7 D 02 H 00 M): 0.764 ± 0.140 kPa/sec
total specific airway resistance, mean ± SD (1000 μg, 7 D 06 H 00 M): 0.787 ± 0.188 kPa/sec
total specific airway resistance, mean ± SD (1000 μg, SCREENING): 0.867 ± 0.376 kPa/sec
total specific airway resistance, mean ± SD (1000 μg, SCREENING 2): 1.009 ± 0.340 kPa/sec
total specific airway resistance, mean ± SD (1000 μg, −0 D 18 H 00 M (pretreatment day)): 0.901 ± 0.187 kPa/sec
total specific airway resistance, mean ± SD (1000 μg, −0 D 22 H 00 M (pretreatment day)): 0.903 ± 0.255 kPa/sec
total specific airway resistance, mean ± SD (1000 μg, −1 D 00 H 00 M (pretreatment day)): 0.996 ± 0.194 kPa/sec
total specific airway resistance, mean ± SD (2000 μg, 0 D 00 H 00 M): 0.947 ± 0.143 kPa/sec
total specific airway resistance, mean ± SD (2000 μg, 0 D 02 H 00 M): 0.677 ± 0.139 kPa/sec
total specific airway resistance, mean ± SD (2000 μg, 0 D 06 H 00 M): 0.651 ± 0.149 kPa/sec
total specific airway resistance, mean ± SD (2000 μg, 2 D 02 H 00 M): 0.748 ± 0.155 kPa/sec
total specific airway resistance, mean ± SD (2000 μg, 4 D 02 H 00 M): 0.709 ± 0.178 kPa/sec
total specific airway resistance, mean ± SD (2000 μg, 6 D 04 H 00 M): 0.722 ± 0.168 kPa/sec
total specific airway resistance, mean ± SD (2000 μg, 7 D 00 H 00 M): 0.844 ± 0.097 kPa/sec
total specific airway resistance, mean ± SD (2000 μg, 7 D 02 H 00 M): 0.716 ± 0.089 kPa/sec
total specific airway resistance, mean ± SD (2000 μg, 7 D 06 H 00 M): 0.730 ± 0.151 kPa/sec
total specific airway resistance, mean ± SD (2000 μg, SCREENING): 0.899 ± 0.150 kPa/sec
total specific airway resistance, mean ± SD (2000 μg, SCREENING 2): 0.957 ± 0.140 kPa/sec
total specific airway resistance, mean ± SD (2000 μg, −0 D 18 H 00 M (pretreatment day)): 0.943 ± 0.245 kPa/sec
total specific airway resistance, mean ± SD (2000 μg, −0 D 22 H 00 M (pretreatment day)): 0.933 ± 0.165 kPa/sec
total specific airway resistance, mean ± SD (2000 μg, −1 D 00 H 00 M (pretreatment day)): 0.962 ± 0.266 kPa/sec
decrease of total specific airway resistance sRaw compared to baseline (6 h after first dosing, all dose groups): −0.142 to −0.296 kPa/sec
